This is an account of results in ChEMBL document CHEMBL4190161 (Medchemcomm, 2016).

The source made the active and inactive calls. No cut-off for these calls is given here. Starred links: 1 amine or outer side, 2 acyl side, 3 side chain; linkers in the order of their positions; H or OH if unused. Residues, ends and D or L forms follow the SMILES beside them. γGlu = O=C(O)[C@H](CCC(=O)[*:2])N[*:1]

Test [1] can be described thus: Antioxidant activity of the compound in phosphate buffer at pH 7.4 assessed as trolox equivalent of AAPH-induced peroxyl radical scavenging activity at 6 uM pretreated for 2 mins followed by AAPH addition measured at 2 mins interval for 108 minutes by ORAC-FL assay. It is filed as functional.
A short description of test [2]: Antioxidant activity assessed as DPPH radical scavenging activity incubated for 30 mins under dark condition by spectrophotometric method. Type of test: functional. (In general: Loss of DPPH colour is used to gauge radical scavenging.)
Test [3] can be described thus: Metal chelating activity assessed as compound-Fe2+ complex formation.
A short description of test [4]: Antioxidant activity assessed as trolox equivalent of hydroxyl radical scavenging activity up to 25 mg/ml measured after 60 mins by fenton reaction method. Type of test: functional.
Test [5] is described as follows: Antioxidant activity of the compound in phosphate buffer at pH 7.4 assessed as trolox equivalent of AAPH-induced peroxyl radical scavenging activity measured at 2 mins interval for 80 minutes by ORAC-FL assay. Type of test: functional.
The nature of test [6]: Antioxidant activity assessed as ABTS radical scavenging activity measured within 12 mins by spectrophotometric method. Type of test: functional.
Test [7] in a line: Antioxidant activity assessed as DPPH radical scavenging activity measured after 20 mins by spectrophotometric method. Type of test: functional.
The nature of test [8]: Antioxidant activity of the compound in phosphate buffer at pH 6.6 assessed as trolox equivalent of potassium ferric cyanide ion reducing activity at 0.4 mM after 20 mins by spectrophotometric method. It is filed as functional.
The nature of test [9]: Antioxidant activity of the compound in phosphate buffered saline at pH 7.4 assessed as trolox equivalent of ABTS radical scavenging activity after 6 mins by spectrophotometric method. Type of test: functional.
Test [10] in a line: Antioxidant activity assessed as DPPH radical scavenging activity measured after 30 mins by spectrophotometric method. It is filed as functional.

In general, IC50 refers to the concentration at which inhibition is half-maximal. For `CC(C)C[C@H](NC(=O)[C@H](Cc1cnc[nH]1)NC(=O)[C@@H](N)Cc1ccc(O)cc1)C(=O)O`, the Activity (umolequiv/umol) in test [1] turned out to be 0.36. Also, in [2], the IC50 is 99.9 mM. For the same compound, in [3], the result was inactive. Further, the outcome in [4] was Active.

Take `CSCC[C@H](N)C(=O)O`: the Activity (umolequiv/umol) in test [5] turned out to be 1.13.

For `N[C@@H](CS)C(=O)O`, the Activity (umolequiv/umol) in test [5] was 0.149.

On to `N[C@@H](Cc1c[nH]cn1)C(=O)O`, for which the Activity (umolequiv/umol) in test [5] amounted to 0.073.

Turning to `N[C@@H](Cc1ccc(O)cc1)C(=O)O`, the Activity (umolequiv/umol) in test [5] is 1.57.

For `N[C@@H](Cc1ccccc1)C(=O)O`, the Activity (umolequiv/umol) in [5] was determined as 0.0025.

`N[C@@H](CCC(=O)O)C(=O)N[C@@H](CS)C(=O)N[C@@H](Cc1cnc[nH]1)C(=O)O` (H-Glu-Cys-His-OH): the Activity (umolequiv/umol) is 0.1 in test [1] and 61.2 in test [8]. The result in test [6] and in [4] was Active. Moreover, the result in [7] and in [3] was inactive. Besides, in [2], the IC50 came to 0.11 mM.

As for `CC(C)C[C@H](NC(=O)[C@H](CCC(=O)O)NC(=O)CN)C(=O)O` (H-Gly-Glu-Leu-OH), in test [1], the Activity (umolequiv/umol) is -0.1. In addition, in [2], the IC50 came out at 521 mM. The outcome in [3] and in test [4] was inactive.

On to `CC(C)C[C@H](N)C(=O)N[C@@H](Cc1cnc[nH]1)C(=O)NCC(=O)O` (H-Leu-His-Gly-OH), for which the Activity (umolequiv/umol) in test [1] is -0.48. In test [2], the IC50 is 102 mM. The result in test [3] was inactive. Besides, the outcome in [4] was Active.

Take `CC(C)C[C@H](NC(=O)[C@@H](N)CCCCN)C(=O)N[C@@H](CCC(=O)O)C(=O)O` (H-Lys-Leu-Glu-OH): in test [1], the Activity (umolequiv/umol) is -0.04. Besides, the IC50 in [2] came out at 348 mM. The result in [3] and in test [4] was inactive.

Take `CC(C)[C@H](NC(=O)[C@@H](N)CCCCN)C(=O)N[C@@H](Cc1cnc[nH]1)C(=O)O` (H-Lys-Val-His-OH): the Activity (umolequiv/umol) in test [1] stood at 0.03. Further, the IC50 in test [2] turned out to be 285 mM. Further, the outcome in test [3] was inactive. Moreover, the outcome in test [4] was Active.

For `CC(C)C[C@H](NC(=O)[C@H](CCCCN)NC(=O)[C@@H](N)Cc1ccccc1)C(=O)O` (H-Phe-Lys-Leu-OH), the Activity (umolequiv/umol) in [1] was -0.06; in test [8] it was 20.4. Moreover, in [2], the IC50 amounted to 4.2 mM. Further, the outcome in [3] was inactive. The result in test [4] was Active.

Regarding `O=C(O)CNC(=O)[C@H](CS)NC(=O)[C@@H]1CCCN1` (H-Pro-Cys-Gly-OH), the Activity (umolequiv/umol) in test [1] is 0.2; in test [8] it was 25.2. Further, the result in [9] and in test [4] was Active. Moreover, the outcome in test [10] and in test [3] was inactive. For the same compound, in test [2], the IC50 was determined as 0.3 mM.

For the compound `N[C@@H](Cc1ccc(O)cc1)C(=O)N[C@@H](CCC(=O)O)C(=O)NCC(=O)O` (H-Tyr-Glu-Gly-OH), the Activity (umolequiv/umol) in test [1] turned out to be 1.2. In test [6], the result was Active. The IC50 in test [2] was 78.8 mM. Moreover, in [3], the result was inactive. The Activity (mmolequiv/mmol) in test [4] worked out at 0.47.

Take `N[C@@H](CCC(=O)N[C@@H](CS)C(=O)N[C@@H](Cc1cnc[nH]1)C(=O)O)C(=O)O` (γGlu-Cys-His-OH): the result in test [9] was Active.

For `N[C@@H](CCC(=O)N[C@@H](CS)C(=O)NCC(=O)O)C(=O)O` [GLUTATHIONE], the Activity (umolequiv/umol) was determined as 0.65 in test [1] and 50.7 in test [8]. In addition, the result in test [6] was Active. In addition, in test [2], the IC50 stood at 0.16 mM. Besides, the result in test [3] was inactive.
